Results as given in patent publication US20240226098A1, “COMPOUNDS AND METHODS FOR MODULATING SPLICING” (REMIX THERAPEUTICS INC., priority 2020, published 2024).
pIC50: −log10 of the molar value. Counter-ions that a name gives are not always drawn.

What was measured:
Format in all cases: cell-based
[1] = test system: HTT mRNA, alternative junction (AJ); experiment: Splicing assay (RT-qPCR): increase in HTT alternative junction (AJ) mRNA; conditions: A673 or K562 cell line, 24 hours treatment, top dose 10 uM; concentration having 50% response in AJ increase
Procedure: (§1) Compounds described herein were used to modulate RNA transcript abundance in cells. The expression of a target mRNA was measured by detecting the formation of an exon-exon junction in the canonical transcript (CJ). A compound mediated exon-inclusion event was detected by observing an increase in formation of a new junction with an alternative exon (AJ). Real-time qPCR assays were used to detect these splicing switches and interrogate the potency of various compounds towards different target genes. A high-throughput real time quantitative PCR (RT-qPCR) assay was developed to measure these two isoforms of the mRNA (CJ and AJ) for an exemplary gene, HTT, together with a control housekeeping gene, GAPDH or GUSB or PPIA, used for normalization. Briefly, the A673 or K562 cell line was treated with various compounds described herein (e.g., compounds of Formula (I)). After treatment, the levels of the HTT mRNA targets were determined from each sample of cell lysate by cDNA synthesis followed by qPCR.
(§2) • Cells-to-CT 1-step kit: ThermoFisher A25602, Cells-to-CT lysis reagent: ThermoFisher 4391851C, TaqMan™ Fast Virus 1-Step Master Mix: ThermoFisher 4444436 • GAPDH: VIC-PL, ThermoFisher 4326317E (Assay: Hs99999905_ml)—used for K562/suspension cell lines • GUSB: VIC-PL, ThermoFisher 4326320E (Assay: Hs99999908_ml)—used for K562/suspension cell lines • PPIA: VIC-PL, ThermoFisher 4326316E (Assay: Hs99999904_ml)—used for A673/adherent cell lines
(§3) The A673 cell line was cultured in DMEM with 10% FBS. Cells were diluted with full growth media and plated in a 96-well plate (15,000 cells in 100 ul media per well). The plate was incubated at 37° C. with 5% CO2 for 24 hours to allow cells to adhere. An 11-point 3-fold serial dilution of the compounds was made in DMSO then diluted in media in an intermediate plate. Compounds were transferred from the intermediate plate to the cell plate with the top dose at a final concentration of 10 uM in the well. Final DMSO concentration was kept at or below 0.25%. The cell plate was returned to the incubator at 37° C. with 5% CO2 for an additional 24 hours.
(§4) The K562 cell line was cultured in IMDM with 10% FBS. For K562, cells were diluted with full growth media and plated in either a 96-well plate (50,000 cells in 50 uL media per well) or a 384-well plate (8,000-40,000 cells in 45 uL media per well). An 11-point 3-fold serial dilution of the compounds were made in DMSO then diluted in media in an intermediate plate. Compound was transferred from the intermediate plate to the cell plate with the top dose at a final concentration of 10 uM in the well. Final DMSO concentration was kept at or below 0.25%. Final volume was 100 uL for 96-well plate and 50 uL for 384-well plate. The cell plate was then placed in an incubator at 37° C. with 5% CO2 for 24 hours.
(§5) The cells were then gently washed with 50 uL-100 uL cold PBS before proceeding to addition of lysis buffer. 30 uL-50 uL of room temperature lysis buffer with DNAse I (and optionally RNAsin) was added to each well. Cells were shaken/mixed thoroughly at room temperature for 5-10 minutes for lysis to take place and then 3 uL-5 uL of room temperature stop solution was added and wells were shaken/mixed again. After 2-5 minutes, the cell lysate plate was transferred to ice for RT-qPCR reaction setup. The lysates could also be frozen at −80° C. for later use.
(§6) In some cases, a direct lysis buffer was used. An appropriate volume of 3× lysis buffer (10 mM Tris, 150 mM NaCl, 1.5%-2.5% Igepal and 0.1-1 U/uL RNAsin, pH 7.4) was directly added to either K562 or A673 cells in media and mixed by pipetting 3 times. The plates were then incubated at room temperature with shaking/rocking for 20-50 minutes to allow for lysis to take place. After this time, the cell lysate plate was transferred to ice to set up for the RT-qPCR reactions. The lysates could also be frozen at −80° C. for later use. […]

[2] = test system: HTT mRNA, canonical junction (CJ); experiment: Splicing assay (RT-qPCR): decrease in HTT canonical junction (CJ) mRNA; conditions: A673 or K562 cell line, 24 hours treatment, top dose 10 uM; concentration having 50% response in CJ decrease
Procedure: as §1, §2, §3, §4, §5, §6

[3] = test system: HTT CJ mRNA; experiment: Gene panel canonical junction qPCR assay: decrease in HTT CJ mRNA; conditions: protocol as for Table 2, read-out: HTT (IC50, decrease in CJ mRNA levels)
Procedure: as §1, §3, §4, §5
(§7) In some cases, a direct lysis buffer was used. An appropriate volume of 3× lysis buffer (10 mM Tris, 150 mM NaCl, 1.5%-2.5% Igepal and 0.1-1 U/uL RNAsin, pH 7.4) was directly added to either K562 or A673 cells in media and mixed by pipetting 3 times. The plates were then incubated at room temperature with shaking/rocking for 20-50 minutes to allow for lysis to take place. After this time, the cell lysate plate was transferred to ice to set up for the RT-qPCR reactions. The lysates could also be frozen at −80° C. for later use.
(§8) To set up 10 uL RT-qPCR reactions, cell lysates were transferred to 384-well qPCR plates containing the master mix according to the table below. The plates were sealed, gently vortexed, and spun down before the run. The volumes were adjusted accordingly in some instances where the reaction was carried in 20 uL. The table below summarizes the components of the RT-qPCR reactions:
(§9) The RT-qPCR reaction was performed using a QuantStudio (ThermoFisher) under the following fast cycling conditions. […]

[4] = test system: SMN2 CJ mRNA; experiment: Gene panel canonical junction qPCR assay: decrease in SMN2 CJ mRNA; conditions: protocol as for Table 2, read-out: SMN2 (IC50, decrease in CJ mRNA levels)
Procedure: as §1, §3, §4, §5, §7, §8, §9

[5] = test system: Target C CJ mRNA; experiment: Gene panel canonical junction qPCR assay: decrease in Target C CJ mRNA; conditions: protocol as for Table 2, read-out: Target C (IC50, decrease in CJ mRNA levels)
Procedure: as §1, §3, §4, §5, §7, §8, §9

pIC50 [3]	pIC50 [4]	pIC50 [5]	SMILES	AC50 [1]	AC50 [2]
5.00 to 6.00	> 7.00	5.00 to 6.00	CCN1CCC(c2ccc(C(=O)Nc3cc(F)c4nc(C)cn4c3)c3nnccc23)CC1 [Compound 141, 5-(1-ethylpiperidin-4-yl)-N-[8-fluoro-2-methylimidazo[1,2-a]pyridin-6-yl] cinnoline-8-carboxamide]	1 to 10 µM	1 to 10 µM
			Cc1cn2cc(NC(=O)c3ccc(N4CCN5CCCC5C4)c4ccnnc34)cc(F)c2n1 (stereo not shown) [Compound 107]	0.1 to 1 µM	1 to 10 µM
			Cc1cn2cc(NC(=O)c3ccc(N4CCNC5(CC5)C4)c4ccnnc34)cc(F)c2n1 [Compound 105, 5-[4,7-diazaspiro [2.5]octan-7-yl]-N-[8-fluoro-2-methylimidazo[1,2-a]pyridin-6-yl] cinnoline-8-carboxamide hydrochloride]	1 to 10 µM	1 to 10 µM
5.00 to 6.00	> 7.00	5.00 to 6.00	Cc1cn2cc(NC(=O)c3ccc(N4CCN(C)C(C)C4)c4ccnnc34)cc(F)c2n1 (stereo in doubt) [Compound 149, 5-[(3S)-3,4-dimethylpiperazin-1-yl]-N-[8-fluoro-2-methylimidazo[1,2-a]pyridin-6-yl]cinnoline-8-carboxamide]	1 to 10 µM	1 to 10 µM
			Cc1cn2cc(NC(=O)c3ccc(N4CCNC(C)(C)C4)c4ccnnc34)cc(F)c2n1 [Compound 106, 5-(3,3-dimethylpiperazin-1-yl)-N-[8-fluoro-2-methylimidazo[1,2-a]pyridin-6-yl] cinnoline-8-carboxamide hydrochloride]	1 to 10 µM	0.1 to 1 µM
6.00 to 7.00	6.00 to 7.00	6.00 to 7.00	Cc1cn2nc(NC(=O)c3ccc(N4CCNCC4)c4ccnnc34)cc(C)c2n1 [Compound 100, N-[2,8-dimethylimidazo[1,2-b]pyridazin-6-yl]-5-(piperazin-1-yl)cinnoline-8-carboxamide]	0.1 to 1 µM	0.1 to 1 µM
5.00 to 6.00	6.00 to 7.00	5.00 to 6.00	Cc1cn2nc(NC(=O)c3ccc(C4CCNCC4)c4ccnnc34)cc(C)c2n1 [Compound 113, N-[2,8-dimethylimidazo[1,2-b]pyridazin-6-yl]-5-(piperidin-4-yl) cinnoline-8-carboxamide]	1 to 10 µM	1 to 10 µM
6.00 to 7.00	> 7.00	5.00 to 6.00	Cc1cn2cc(NC(=O)c3ccc(N4CCN5CCCC5C4)c4ccnnc34)cc(F)c2n1 (stereo in doubt) [Compound 153, 5-[(8aS)-hexahydro-1H-pyrrolo[1,2-a]pyrazin-2-yl]-N-[8-fluoro-2-methylimidazo[1,2-a]pyridin-6-yl]cinnoline-8-carboxamide]	0.1 to 1 µM	0.1 to 1 µM
< 5.00	< 5.00		Cc1cn2cc(-c3ccc(N4CCNCC4)c4ccc(O)nc34)cc(F)c2n1 [Compound 144, 8-[8-fluoro-2-methylimidazo[1,2-a]pyridin-6-yl]-5-(piperazin-1-yl)quinolin-2-ol]	> 10 µM	> 10 µM
< 5.00	< 5.00		COc1ccc2c(N3CCNCC3)ccc(-c3cc(F)c4nc(C)cn4c3)c2n1 [Compound 114, 8-[8-fluoro-2-methylimidazo[1,2-a]pyridin-6-yl]-2-methoxy-5-(piperazin-1-yl) quinoline]	> 10 µM	> 10 µM
			Cc1cn2cc(NC(=O)c3ccc(N(C)C4CCN(C)CC4)c4ccnnc34)cc(F)c2n1 [Compound 136, N-[8-fluoro-2-methylimidazo[1,2-a]pyridin-6-yl]-5-[methyl(1-methylpiperidin-4-yl)amino] cinnoline-8-carboxamide]	1 to 10 µM	1 to 10 µM
5.00 to 6.00	> 7.00		Cc1cn2cc(NC(=O)c3ccc(N4CCN(C)C(C)C4)c4ccnnc34)cc(F)c2n1 (stereo not shown) [Compound 129, 5-(3,4-dimethylpiperazin-1-yl)-N-[8-fluoro-2-methylimidazo [1,2-a]pyridin-6-yl]cinnoline-8-carboxamide]	1 to 10 µM	1 to 10 µM
5.00 to 6.00	6.00 to 7.00		Cc1cn2cc(NC(=O)c3ccc(N4CCC(NC(C)(C)C)C4)c4ccnnc34)cc(F)c2n1 (stereo not shown) [Compound 109, 5-[3-(tert-butylamino)pyrrolidin-1-yl]-N-[8-fluoro-2-methylimidazo[1,2-a]pyridin-6-yl]cinnoline-8-carboxamide]	1 to 10 µM	1 to 10 µM
			CCNC1CCN(c2ccc(C(=O)Nc3cc(F)c4nc(C)cn4c3)c3nnccc23)CC1 [Compound 139, 5-[4-(ethylamino)piperidin-1-yl]-N-[8-fluoro-2-methylimidazo[1,2-a]pyridin-6-yl]cinnoline-8-carboxamide]	1 to 10 µM	1 to 10 µM
			Cc1cn2cc(NC(=O)c3ccc(N4CC(C)(C)NC(C)(C)C4)c4ccnnc34)cc(F)c2n1 [Compound 104, N-[8-fluoro-2-methylimidazo[1,2-a]pyridin-6-yl]-5-(3,3,5,5-tetramethylpiperazin-1-yl) cinnoline-8-carboxamide]	1 to 10 µM	1 to 10 µM
			Cc1cn2cc(NC(=O)c3ccc(N(C)C4CC(C)(C)NC(C)(C)C4)c4ccnnc34)cc(F)c2n1 [Compound 135, N-[8-fluoro-2-methylimidazo[1,2-a]pyridin-6-yl]-5-[methyl(2,2,6,6-tetramethylpiperidin-4-yl)amino]cinnoline-8-carboxamide]	1 to 10 µM	0.1 to 1 µM
			Cc1cn2cc(NC(=O)c3ccc(N4CCNCC4)c4ncnnc34)cc(F)c2n1 [Compound 110, N-[8-fluoro-2-methylimidazo[1,2-a]pyridin-6-yl]-5-(piperazin-1-yl)-1,2,4-benzotriazine-8-carboxamide]	1 to 10 µM	1 to 10 µM
5.00 to 6.00	> 7.00		CCC1CN(c2ccc(C(=O)Nc3cc(F)c4nc(C)cn4c3)c3nnccc23)CCN1 (stereo not shown) [Compound 130, 5-(3-ethylpiperazin-1-yl)-N-[8-fluoro-2-methylimidazo[1,2-a]pyridin-6-yl] cinnoline-8-carboxamide hydrochloride]	1 to 10 µM	1 to 10 µM
